The results in this text go back to US20220160762A1, “ENGINEERED IMMUNE CELLS” (NATIONAL UNIVERSITY OF SINGAPORE, priority 2019, published 2022).

One experiment concerns TCR-Jurkat. The experiment can be described thus: T cell stimulation assay with kinase inhibitor, IL-2 ELISA readout. It is filed as cell-based. Particulars: Homo sapiens, TCR-Jurkat stimulated with CHO-L2, 18 hrs, read-out: IC50 of inhibitor on IL-2 production. The method, then:
(§1) Artificial antigen presenting CHO cells (APC-CHO) were seeded onto a 96 well flat plate at 2-3×10^4 per well one day before. For APC-CHO requiring peptide pulsing, peptide was added at 4 uM for 3 hrs, and then washed away before CAR-T or TCR-T cells were added. Each CAR-T cell or TCR T cell sample was counted and suspended at a concentration of 10^6 per ml in culturing RPMI medium. 200 ul per well of suspended cell solution was then added into APC-CHO pre-seeded plate. For inhibitor experiments, inhibitor was added accordingly into the cell mixture. Technical triplicates were performed for all experiments. The cells were incubated at 37° C., 5% CO2 for 18 hrs. After incubation, supernatant was collected for human IL-2 ELISA assay, which was performed according to the manufacturer's protocol (Invitrogen). The T cell pellets were resuspended for surface staining or used for another round of stimulation by repeating the method described above.

The next experiment deals with CAR-Jurkat. The description is as above. The note with it: for IC50: Homo sapiens, T-cell, CAR-Jurkat stimulated with CHO-L2, 18 hrs, read-out: IC50 of inhibitor on IL-2 production. The experiment is classed as cell-based, human. The method, then: as §1
The next experiment concerns CAR-Jcam. In words: T cell stimulation assay with SFK inhibitor, IL-2 ELISA readout. The experiment is classed as cell-based, human. Particulars: CAR-Jcam (LCK-deficient). The method, then:
as §1
(In general: An ELISA detects its analyte on a solid surface through an enzyme-linked reagent.)

What is called IC50 is the concentration at which inhibition is half-maximal. Take `CN(C)S(=O)(=O)c1ccc2c(c1)/C(=C/c1cc3c([nH]1)CCCC3)C(=O)N2` [SU6656]: the IC50 with TCR-Jurkat was 5580 nM; with CAR-Jurkat, 3760 nM.

With `COc1cc(-c2nn([C@H]3CC[C@H](N4CCN(C(C)=O)CC4)CC3)c3ncnc(N)c23)ccc1NC(=O)c1cc2ccccc2n1C` [A770041], the half-maximal inhibitory concentration (IC50) is 6.6 nM with TCR-Jurkat and 47 nM in the experiment on CAR-Jurkat.

For `CC(C)(C)n1nc(-c2ccc(Cl)cc2)c2c(N)ncnc21` [PP2], the “IL-2 production after inhibitor was added” value in the experiment on CAR-Jurkat (CAR-Jurkat) and in the experiment on CAR-Jcam was “entirely quenched” in each case.
